Test results as given in the supplement of paper PMC11208160.

Assay: recombinant UMI read abundance after kanamycin selection (control-corrected) (log10(CPM+1)); higher = more efficient recombination; extreme values may be limits of the assay; sequences stand for … in AGTGCAGAGAAAATCGGCCAGTTTTCTCTGCCTGCAGTCCGCATGCCGTGGGACCCCTTGGGTTCTAACCTGTTGCCTAGATTTATGCAGCGGACTGCCTTTCTCCCAAAGTGATAAACCGG…AGGTTGGTTTCACT; site = the 11-nt donor
Procedure, shortened: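 In a pooled Escherichia coli screen for the IS621 bridge recombinase, donor and donor-binding-loop pairs were each placed with a 12-nt UMI on a plasmid bearing a promoterless kanamycin gene. This library was co-electroporated with a target plasmid encoding a fixed target and T7-inducible recombinase, and cells were plated either on IPTG (0.07 mM) plus kanamycin or without selection, in two replicates each. Recombinant UMIs were PCR-amplified across the donor–target junction and sequenced, and counts were converted to CPM, averaged over replicates, scaled by control-derived factors and reported as log10(CPM+1).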
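Further: IS621 bridge recombinase in Escherichia coli cells against a fixed T5 target plasmid.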

Sequence	recombinant UMI read abundance (log10)
GCGTGCCCATGGACCGGTTTTCCCGGTAATCCGTATTTGAT (site GCCTGCCCTAT)	0.0179
GCGTGCCCATGGACCGGTTTTCCCGGTAATCCGTATTTGAT (site GCGTGCCCTAT)	0.221
GCGTGCCCATGGACCGGTTTTCCCGGTAATCCGTATTTGAT (site GCTTGCCCTAT)	0.0133
GCGTTCTCATGGACCGGTTTTCCCGGTAATCCGTATTTGAA (site GCGTTCTCTTT)	2.47
GCTACCTCATGGACCGGTTTTCCCGGTAATCCGTATTTGGC (site GCTACCTCTGC)	2.47
GCTACTGCATGGACCGGTTTTCCCGGTAATCCGTATTTGCA (site GCTACTGCTAG)	0
GCTACTGCATGGACCGGTTTTCCCGGTAATCCGTATTTGCA (site GCTACTGCTCG)	0.00835
GCTACTGCATGGACCGGTTTTCCCGGTAATCCGTATTTGCA (site GCTACTGCTGG)	0
GCTACTGCATGGACCGGTTTTCCCGGTAATCCGTATTTGCA (site GCTACTGCTTG)	2.78
GCTACTGCATGGACCGGTTTTCCCGGTAATCCGTATTTGCG (site GCTACTGCTAG)	0.345
GCTACTGCATGGACCGGTTTTCCCGGTAATCCGTATTTGCG (site GCTACTGCTCG)	1.27
GCTACTGCATGGACCGGTTTTCCCGGTAATCCGTATTTGCG (site GCTACTGCTGG)	0
GCTACTGCATGGACCGGTTTTCCCGGTAATCCGTATTTGCG (site GCTACTGCTTG)	1.35
GCTACTGCATGGACCGGTTTTCCCGGTAATCCGTATTTGTC (site GCTACTGCTGA)	1.83
GCTACTGCATGGACCGGTTTTCCCGGTAATCCGTATTTGTC (site GCTACTGCTGC)	0
GCTACTGCATGGACCGGTTTTCCCGGTAATCCGTATTTGTC (site GCTACTGCTGG)	0.571
GCTACTGCATGGACCGGTTTTCCCGGTAATCCGTATTTGTC (site GCTACTGCTGT)	0.512
GCTAGAACATGGACCGGTTTTCCCGGTAATCCGTATTTGAG (site ACTAGAACTCT)	0.959
GCTAGAACATGGACCGGTTTTCCCGGTAATCCGTATTTGAG (site CCTAGAACTCT)	0.439
GCTAGAACATGGACCGGTTTTCCCGGTAATCCGTATTTGAG (site GCTAGAACTCT)	1.83
GCTAGAACATGGACCGGTTTTCCCGGTAATCCGTATTTGAG (site TCTAGAACTCT)	0.815
GCTAGGCCATGGACCGGTTTTCCCGGTAATCCGTATTTGAG (site GCTAGGCCTCT)	0.0384
GCTATACCATGGACCGGTTTTCCCGGTAATCCGTATTTGTA (site GCTATACCTTA)	0.0042
GCTATCTCATGGACCGGTTTTCCCGGTAATCCGTATTTGAA (site GCTATCTCTTT)	1.86
GCTCCTGCATGGACCGGTTTTCCCGGTAATCCGTATTTGCC (site GCTACTGCTGG)	0.902

Sequence	recombinant UMI read abundance (log10)
GCTCCTGCATGGACCGGTTTTCCCGGTAATCCGTATTTGCC (site GCTCCTGCTGG)	0.921
GCTCCTGCATGGACCGGTTTTCCCGGTAATCCGTATTTGCC (site GCTGCTGCTGG)	0
GCTCCTGCATGGACCGGTTTTCCCGGTAATCCGTATTTGCC (site GCTTCTGCTGG)	0
GCTGGCCCATGGACCGGTTTTCCCGGTAATCCGTATTTGAT (site GCTAGCCCTAT)	0.0226
GCTGGCCCATGGACCGGTTTTCCCGGTAATCCGTATTTGAT (site GCTCGCCCTAT)	0.00439
GCTGGCCCATGGACCGGTTTTCCCGGTAATCCGTATTTGAT (site GCTGGCCCTAT)	0.00519
GCTGGCCCATGGACCGGTTTTCCCGGTAATCCGTATTTGAT (site GCTTGCCCTAT)	0
GCTGGTCCATGGACCGGTTTTCCCGGTAATCCGTATTTGTA (site GCTGGTCCTTA)	0.297
GCTGTCCCATGGACCGGTTTTCCCGGTAATCCGTATTTGGC (site GCTGTCCCTGC)	0
GCTGTTCCATGGACCGGTTTTCCCGGTAATCCGTATTTGGT (site GATGTTCCTAC)	0.0117
GCTGTTCCATGGACCGGTTTTCCCGGTAATCCGTATTTGGT (site GCTGTTCCTAC)	0
GCTGTTCCATGGACCGGTTTTCCCGGTAATCCGTATTTGGT (site GGTGTTCCTAC)	0.0107
GCTGTTCCATGGACCGGTTTTCCCGGTAATCCGTATTTGGT (site GTTGTTCCTAC)	0
GCTTGCCCATGGACCGGTTTTCCCGGTAATCCGTATTTGAT (site ACTTGCCCTAT)	0
GCTTGCCCATGGACCGGTTTTCCCGGTAATCCGTATTTGAT (site CCTTGCCCTAT)	0.0733
GCTTGCCCATGGACCGGTTTTCCCGGTAATCCGTATTTGAT (site GATTGCCCTAT)	0.0145
GCTTGCCCATGGACCGGTTTTCCCGGTAATCCGTATTTGAT (site GCATGCCCTAT)	0.0036
GCTTGCCCATGGACCGGTTTTCCCGGTAATCCGTATTTGAT (site GCCTGCCCTAT)	0.0885
GCTTGCCCATGGACCGGTTTTCCCGGTAATCCGTATTTGAT (site GCGTGCCCTAT)	0.0338
GCTTGCCCATGGACCGGTTTTCCCGGTAATCCGTATTTGAT (site GCTAGCCCTAT)	0.00265
GCTTGCCCATGGACCGGTTTTCCCGGTAATCCGTATTTGAT (site GCTCGCCCTAT)	0.249
GCTTGCCCATGGACCGGTTTTCCCGGTAATCCGTATTTGAT (site GCTGGCCCTAT)	0.00346
GCTTGCCCATGGACCGGTTTTCCCGGTAATCCGTATTTGAT (site GCTTACCCTAT)	0.00934
GCTTGCCCATGGACCGGTTTTCCCGGTAATCCGTATTTGAT (site GCTTCCCCTAT)	0.0974
GCTTGCCCATGGACCGGTTTTCCCGGTAATCCGTATTTGAT (site GCTTGACCTAT)	0.0101

Sequence	recombinant UMI read abundance (log10)
GCTTGCCCATGGACCGGTTTTCCCGGTAATCCGTATTTGAT (site GCTTGCACTAT)	0.00776
GCTTGCCCATGGACCGGTTTTCCCGGTAATCCGTATTTGAT (site GCTTGCCCTAA)	0.00772
GCTTGCCCATGGACCGGTTTTCCCGGTAATCCGTATTTGAT (site GCTTGCCCTAC)	0.00771
GCTTGCCCATGGACCGGTTTTCCCGGTAATCCGTATTTGAT (site GCTTGCCCTAG)	0
GCTTGCCCATGGACCGGTTTTCCCGGTAATCCGTATTTGAT (site GCTTGCCCTAT)	0.0141
GCTTGCCCATGGACCGGTTTTCCCGGTAATCCGTATTTGAT (site GCTTGCCCTCT)	0.0236
GCTTGCCCATGGACCGGTTTTCCCGGTAATCCGTATTTGAT (site GCTTGCCCTGT)	0
GCTTGCCCATGGACCGGTTTTCCCGGTAATCCGTATTTGAT (site GCTTGCCCTTT)	0.0171
GCTTGCCCATGGACCGGTTTTCCCGGTAATCCGTATTTGAT (site GCTTGCGCTAT)	0.0038
GCTTGCCCATGGACCGGTTTTCCCGGTAATCCGTATTTGAT (site GCTTGCTCTAT)	0.571
GCTTGCCCATGGACCGGTTTTCCCGGTAATCCGTATTTGAT (site GCTTGGCCTAT)	0.0246
GCTTGCCCATGGACCGGTTTTCCCGGTAATCCGTATTTGAT (site GCTTGTCCTAT)	0.00271
GCTTGCCCATGGACCGGTTTTCCCGGTAATCCGTATTTGAT (site GCTTTCCCTAT)	0
GCTTGCCCATGGACCGGTTTTCCCGGTAATCCGTATTTGAT (site GGTTGCCCTAT)	0.0122
GCTTGCCCATGGACCGGTTTTCCCGGTAATCCGTATTTGAT (site GTTTGCCCTAT)	0.00461
GCTTGCCCATGGACCGGTTTTCCCGGTAATCCGTATTTGAT (site TCTTGCCCTAT)	0.0164
GCTTGCGCATGGACCGGTTTTCCCGGTAATCCGTATTTGAT (site GCTTGCACTAT)	0.734
GCTTGCGCATGGACCGGTTTTCCCGGTAATCCGTATTTGAT (site GCTTGCCCTAT)	0.00863
GCTTGCGCATGGACCGGTTTTCCCGGTAATCCGTATTTGAT (site GCTTGCGCTAT)	1.72
GCTTGCGCATGGACCGGTTTTCCCGGTAATCCGTATTTGAT (site GCTTGCTCTAT)	0
GGAACCCCATGGACCGGTTTTCCCGGTAATCCGTATTTGTC (site GGAACCCCTGA)	0.334
GGAAGCACATGGACCGGTTTTCCCGGTAATCCGTATTTGTG (site GGAAGCACTCA)	1.4
GGAATTCCATGGACCGGTTTTCCCGGTAATCCGTATTTGCA (site GGAATTCCTTG)	0
GGACCACCATGGACCGGTTTTCCCGGTAATCCGTATTTGCG (site GGACCACCTCG)	0.0308
GGACGCTCATGGACCGGTTTTCCCGGTAATCCGTATTTGAG (site GGACGCTCTCT)	1.55
